Data on 49 compounds can be found in ChEMBL document CHEMBL3301451, “MMV Malaria Box gametocyte functional viability assay screening”.

Assay type in all cases: functional
What all share (set-up): concentration or dose not given beside the values

The subject of test [1] is Plasmodium falciparum. In words: MMV: P. falciparum NF54 functionally mature Stage V gametocytes were incubated for 24 hr in the presence of the test compounds. Gamete formation was then triggered by addition of 2uM xantheurenic acid and temperature decrease to ~20C. Female gamete formation was recorded 24 hr later by automated microscopy detection of surface labelling of female gametes with a Cy3-conjugated antibody reactive to Pfs25. All compounds were tested in 4 independent experiments and data presented here is the mean. The following applies: NF54, 24 h.

In test [2] the test system is Plasmodium falciparum. In words: MMV: P. falciparum NF54 functionally mature Stage V gametocytes were incubated for 24 hr in the presence of the test compounds. Gamete formation was then triggered by addition of 2uM xantheurenic acid and temperature decrease to ~20C. Male gamete exflagellation was recorded and analysed by automated microscopy after 20 min. All compounds were tested in 4 independent experiments and data presented here is the mean.

For test [3], the system named is Plasmodium berghei. As to the kind of experiment: MMV: P. berghei-infected blood was withdrawn from mice by cardiac pucture before being immediately added to ookinete culture medium containing test compounds. 26 hr later, GFP-positive ookinetes were identified and counted by automated microscopy. All compounds were tested in 4 independent experiments and data presented here is the mean.

What is called inhibition is the drop in the measured response relative to a control, in per cent.

As to `CCN1CCCC1CNc1[nH]cnc2c3cc(Cl)ccc3nc1-2` (configuration not stated), the inhibition was 3.48% in test [1], 18.2% in test [2] and -0.006896% in test [3].
For `Cc1cc(NC(=O)c2cccc(C(F)(F)F)c2)n(-c2nc(-c3ccc4c(c3)OCO4)cs2)n1`, in that order: 17.1%, 11.3% and -1.403%.
For `CN1CCN(c2ncnc3c2[nH]c2ccc(Cl)cc23)CC1`, in that order: 6.75%, -2.21% and -3.248%.
As for `O=C(CCc1ccccc1)c1ccccc1OCC(O)CN1CCCCC1` (configuration not stated), the inhibition was -34.8% in test [1], 22.9% in test [2] and -0.1506% in test [3].
For `Cc1cc(Nc2ccc3ccccc3c2)n2ncnc2n1`, in that order: -8.79%, -4.18% and -3.995%.
Turning to `CN(C)CCNc1cc(-c2ccccc2)nc2ccccc12`, the inhibition in test [1] is -24.1%; in test [2] it was 2.52%; in test [3] it was -1.411%.
For `COc1cccc(O)c1CN1CCC2(CCCN(Cc3ccc(F)cc3)C2)C1` (configuration not stated), in that order: -15.6%, -5.07% and 0.1358%.
As to `FC(F)(F)c1cccc(Nc2nc3ccccc3nc2Nc2cccc(C(F)(F)F)c2)c1`, the inhibition was -14.6% in test [1], 24.6% in test [2] and -0.8978% in test [3].
For `c1ccc(-c2ccc(-c3nc4ccccc4[nH]3)cc2)cc1`, in that order: -7.69%, 15.6% and -1.667%.
For `COC(=O)c1ccc(C2C3=C(O)CC(c4ccc(F)cc4)CC3=Nc3ccccc3N2C(=O)c2ccccc2)cc1` (configuration not stated), in that order: -31.4%, -76.8% and -3.179%.
For `COc1cccc(NC(=O)Cn2c(C)c(C#N)c3ccccc32)c1`, in that order: -23.6%, 21.9% and -1.894%.
Regarding `O=C(NC1CCCCC1)C(c1cccs1)N(CCc1ccccc1)C(=O)c1ccco1` (configuration not stated), the inhibition in test [1] was -15.1%; in test [2], 6.52%; in test [3], -4.107%.
For `CCC(=O)Nc1nnc(Cc2ccc(OC)c(OC)c2)s1`, in that order: -4.58%, 19.9% and -4.332%.
As for `Cl.c1ccc2c(NCCCCCCNc3c4c(nc5ccccc35)CCCC4)c3c(nc2c1)CCCC3`, the inhibition in test [1] was -9.36%; in test [2], 18.8%; in test [3], -0.2313%.
For `O=C(CCc1ccco1)NC1CCN(CC2(c3ccc(Cl)cc3)CCC2)CC1`, in that order: -33.1%, 39.4% and 1.599%.
As to `O=C(NCCCN1CCC(N2CCCCC2)CC1)C1=Cc2cc(Br)ccc2OC1`, the inhibition in test [1] was 15%; in test [2] it was 8.14%; in test [3], -4.183%.
On to `Cc1ccnc(NC(c2cccc(OCc3ccccc3)c2)c2ccc3cccnc3c2O)c1` (configuration not stated), for which the inhibition in test [1] is -12.7%; in test [2] it was 11%; in test [3] it was -0.9408%.
For `CCN1CCN(c2cc(C)c3cc(NC(=O)c4ccc(OC)c(OC)c4)ccc3n2)CC1`, in that order: -8.68%, -3.72% and -2.902%.
For `COc1ccc(C(=O)Nc2nonc2-c2ccc(OC)c(OC)c2)cc1Cl`, in that order: -18.2%, 36.3% and 1.319%.
As for `COCCN(C(=O)Cc1cccs1)C(C(=O)NCc1ccc(OC)cc1)c1ccc(C(C)C)cc1` (configuration not stated), the inhibition was -5.87% in test [1], 9.73% in test [2] and 0.1558% in test [3].
Consider `CN1CCN(c2c3c(c(C#N)c4nc5ccccc5n24)CCC3)CC1`, for which the inhibition in test [1] is -10.7%; in test [2], 16.1%; in test [3] it was 0.2959%.
For `COc1ccc2c(c1)OC(O)(C(F)(F)C(F)(F)F)CC2=O` (configuration not stated), in that order: -4.89%, -139% and -0.6954%.
For `FC(F)(F)c1cccc(CNC2CCN(CCc3ccccc3)CC2)c1`, in that order: -31.1%, -0.872% and 1.472%.
For `O=C(c1ccccc1F)N(Cc1ccc(Cl)cc1)c1ccccn1`, in that order: -28.6%, 20.3% and -2.284%.
For the compound `COc1ccc(C2NCCc3c2[nH]c2ccccc32)cc1CN1CCN(c2ccc(F)cc2)CC1.Cl` (configuration not stated), the inhibition was -18.1% in test [1], 5.86% in test [2] and -1.071% in test [3].
For `COc1ccc(C(=O)Nc2ccc(Cl)cc2C(=O)Nc2ccncc2)cc1`, in that order: -19.7%, 14.4% and -4.155%.
As for `O=C1c2ccc3c4c(ccc(c24)C(=O)N1CCCCO)C(=O)N(CCCCO)C3=O`, the figures for the inhibition in test [1], in test [2] and in test [3] were -45.3%, -2.41% and -0.9886%, respectively.
For `OC(Cn1nnc2ccccc21)Cn1c2ccc(Br)cc2c2cc(Br)ccc21` (configuration not stated), in that order: -23.3%, 33.4% and -0.4033%.
For `CCOc1ccc(-n2cc(-c3ccccc3)c3c(SCc4cc(C)ccc4C)ncnc32)cc1`, in that order: -11.5%, 13% and -4.1%.
As to `Cc1ccc(C)c(Cn2c(N3CCC(C(=O)NCc4cccs4)CC3)nc3ccccc32)c1`, the inhibition in test [1] was 9.01%; in test [2], -124%; in test [3], -3.865%.
For `CN(C)c1ccc(-c2nc3cc(N)ccc3[nH]2)cc1`, in that order: -7.9%, 12.2% and -2.982%.
As for `CCOC(=O)c1cnc2ccc(Cl)cc2c1NCCCN(C)C`, the inhibition in test [1] was -11.1%; in test [2] it was -9.15%; in test [3] it was -2.955%.
For `O=C(Nc1ccc(C23CC4CC(CC(c5ccccc5)(C4)C2)C3)cc1)c1cccs1`, in that order: -23.5%, 18.1% and -2.527%.
For `CCOC(=O)c1cnc2c(C)cccc2c1Nc1ccc(C(C)=O)cc1`, in that order: -9.63%, 13% and 1.277%.
For `CNCCCNc1ccnc2cc(Cl)ccc12`, in that order: -3.53%, -17.2% and 0.238%.
Consider `COc1ccccc1CNC(=O)CCn1c(=O)[nH]c2ccsc2c1=O`, for which the inhibition was -26.3% in test [1], 22.3% in test [2] and -0.4809% in test [3].
For `CCn1c(SCC(=O)Nc2cc(C(F)(F)F)ccc2Cl)nc2ccccc2c1=O`, in that order: -19.5%, 22.5% and -2.806%.
For `O=C(Nc1cccc(C(F)(F)F)c1)c1cc(Cl)ccc1O`, the inhibition in test [1] was -6.94%; in test [2], 24.9%; in test [3], -2.67%.
For `CCCCCCn1c(=N)n(CC(O)COc2cccc(C)c2)c2ccccc21.Cl` (configuration not stated), in that order: -17.6%, -52.7% and 1.158%.
For `Cc1ccc2c(C)nc(Nc3nc(C)cc(-c4ccccc4)n3)nc2c1`, in that order: -39.7%, -11.5% and -0.3138%.
In the case of `COc1ccc2c(c1OC)C(=O)N1c3ccccc3N=C(c3ccc(C)cc3)CC21` (configuration not stated), the inhibition in test [1] was -8.58%; in test [2], 8.91%; in test [3], -1.051%.
For the compound `COc1ccccc1N1CCN(C(CNS(=O)(=O)c2ccc(Cl)cc2)c2cccnc2)CC1` (configuration not stated), the inhibition in test [1] was -39.2%; in test [2], 3.66%; in test [3], -1.627%.
For `COc1cc(OC)cc(N2C(=O)N(Cc3ccc(C(C)(C)C)cc3)c3ccccc3S2(=O)=O)c1`, in that order: -7.89%, 8.32% and -1.934%.
For `CCCCOc1ccc(C(=O)Nc2cc(C)on2)cc1`, in that order: -26.5%, 47.5% and 1.333%.
For `CC1CCCCN1CCCNC(=O)c1ccc2c(c1)sc1nc(-c3ccc(F)cc3)cn12` (configuration not stated), the inhibition in test [1] is -12.6%; in test [2], -15.9%; in test [3] it was 0.9156%.
For `CCOC(=O)c1cnc2c(C)cc(C)cc2c1Nc1ccc(OC)c(OC)c1`, in that order: -14.2%, 25.9% and 1.422%.
For `CCCn1c(=N)c(C(=O)NC2CCCCC2)cc2c(=O)n3cccc(C)c3nc21`, in that order: -11.9%, 22.1% and -1.292%.
For `CCN1CCN(c2c(C(=O)c3ccccc3)cnc3cc(OC)c(OC)cc23)CC1`, in that order: -6.16%, -41.4% and -4.456%.
Turning to `CCOC(=O)c1c[nH]c2c(CC)cccc2c1=O`, the results for the inhibition in test [1], in test [2] and in test [3] were 8.74%, 21.5% and -1.306%, respectively.
